A short description of data set [1]: Cytotoxicity in HepG2 cells, Resazurin assay. The note with it: human, HepG2 cells, TOX-HepG2-4 d CC50 (μM), HepG2 cells incubated for 4 days, viability by Resazurin assay. For orientation: Resazurin is reduced to fluorescent resorufin, in cell work by metabolically active cells.
For the next data set, the system named is HBV. The data set can be described thus: anti HBV activity, HepG2.117 cell line, intracellular HBV DNA by realtime PCR. The format is cell-based. The note with it: HepG2.117 cell line (Tet-off), 3 days of treatment, intracellular HBV DNA quantified by realtime PCR, read-out: HBV-AVE-HepG2.117 EC50. Summed up:
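Readout was intracellular HBV DNA by real-time PCR (HBV-specific primers and probe) after 3 days of compound exposure. Serial dilutions were tested in duplicate on HepG2.117 cells, a stable inducible HBV producer in which replication is switched on when doxycycline is absent.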

Setting [2] is: Hepatitis B virus, HepG2.117, 72 h.

The structures appear in SMILES notation. Read-outs that look alike come from different tables or passages of the source.

As for `Cn1cc(C2COc3c(cn(C)c3C(=O)Nc3ccc(F)c(F)c3)S(=O)(=O)N2)cn1` (centres unmarked) [Compound 43, N-(3,4-difluorophenyl)-7-methyl-3-(1-methylpyrazol-4-yl)-1,1-dioxo-3,4-dihydro-2H-pyrrolo[3,4-b][1,4,5]oxathiazepine-6-carboxamide], the CC50 at 4 days in data set [1] was > 25 µM. Besides, the 50% effective concentration (EC50) in the data set with HBV (setting [2]) stood at 56 nM.

Regarding `Cn1cc2c(c1C(=O)Nc1ccc(F)c(C#N)c1)OCC(C)(CO)NS2(=O)=O` (single isomer, unassigned) [Compound 210a, N-(3-cyano-4-fluoro-phenyl)-3-(hydroxymethyl)-3,7-dimethyl-1,1-dioxo-2,4-dihydropyrrolo[3,4-b][1,4,5]oxathiazepine-6-carboxamide], the half-maximal cytotoxic concentration (CC50) at 4 days in data set [1] was > 25 µM. The EC50 in the data set on HBV (setting [2]) turned out to be 37 nM.

For the molecule `Cc1cc(CC2(C)COc3c(cn(C)c3C(=O)Nc3ccc(F)c(C#N)c3)S(=O)(=O)N2)no1` (single isomer, unassigned) [Compound 220a, N-(3-cyano-4-fluoro-phenyl)-3,7-dimethyl-3-[(5-methylisoxazol-3-yl)methyl]-1,1-dioxo-2,4-dihydropyrrolo[3,4-b][1,4,5]oxathiazepine-6-carboxamide], the CC50 at 4 days in data set [1] was > 25 µM. Also, the concentration giving a half-maximal response (EC50) in the data set with HBV was 7 nM.

With `Cn1cc2c(c1C(=O)Nc1ccc(F)c(F)c1)OCC(C)(c1cnccn1)NS2(=O)=O` (racemic) [Compound 145, N-(3,4-difluorophenyl)-3,7-dimethyl-1,1-dioxo-3-pyrazin-2-yl-2,4-dihydropyrrolo[3,4-b][1,4,5]oxathiazepine-6-carboxamide], the CC50 at 4 days in data set [1] is > 25 µM. Besides, the EC50 in the data set on HBV (setting [2]) turned out to be 37 nM.

Regarding `CC(C)[C@@H]1COc2c(ccc(F)c2C(=O)Nc2ccc(F)c(F)c2)S(=O)(=O)N1` [Compound 48, (3R)—N-(3,4-difluorophenyl)-7-fluoro-3-isopropyl-1,1-dioxo-3,4-dihydro-2H-5,1λ^6,2-benzoxathiazepine-6-carboxamide], in data set [1], the CC50 at 4 days is > 25 µM. Further, the EC50 in the data set with HBV (setting [2]) was found to be 84 nM.

Take `Cn1cc2c(c1C(=O)Nc1ccc(F)c(F)c1)OC[C@](C)(Cc1ccccc1)NS2(=O)=O` [Compound 155, (3S)-3-benzyl-N-(3,4-difluorophenyl)-3,7-dimethyl-1,1-dioxo-2,4-dihydropyrrolo[3,4-b][1,4,5]oxathiazepine-6-carboxamide]: the cytotoxic concentration (CC50) at 4 days in data set [1] is > 25 µM. In addition, the EC50 with HBV (setting [2]) was determined as 25 nM.

For `Cn1cc2c(c1C(=O)Nc1ccnc(C(F)(F)F)c1)C=CC(C(F)(F)F)NS2(=O)=O` (centres unmarked) [Compound 58, 7-methyl-1,1-dioxo-3-(trifluoromethyl)-N-[2-(trifluoromethyl)-4-pyridyl]-2,3-dihydropyrrolo[3,4-f]thiazepine-6-carboxamide], in data set [1], the CC50 at 4 days is > 25 µM. Moreover, in the data set on HBV (setting [2]), the EC50 stood at 290 nM.

In the case of `Cn1cc2c(c1C(=O)Nc1ccc(F)c(F)c1)OCC(C)(C)NS2(=O)=O` [Compound 133, N-(3,4-difluorophenyl)-3,3,7-trimethyl-1,1-dioxo-2,4-dihydropyrrolo-[3,4-b][1,4,5]oxathiazepine-6-carboxamide], the half-maximal cytotoxic concentration (CC50) at 4 days in data set [1] is > 25 µM. Also, the EC50 in the data set with HBV (setting [2]) worked out at 11 nM.

For the molecule `C[C@H]1CCc2c(cn(C)c2C(=O)Nc2ccc(F)c(C(F)(F)F)c2)S(=O)(=O)N1` (single isomer, unassigned) [Compound 40, (3*S)—N-[4-fluoro-3-(trifluoromethyl)phenyl]-3,7-dimethyl-1,1-dioxo-2,3,4,5-tetrahydropyrrolo[3,4-f]thiazepine-6-carboxamide], the CC50 at 4 days in data set [1] is > 25 µM. Further, the EC50 with HBV (setting [2]) is 22 nM.

As to `C[C@H]1C=Cc2c(cn(C)c2C(=O)Nc2ccc(F)c(C#N)c2)S(=O)(=O)N1` (single isomer, unassigned) [Compound 32, (*S)—N-(3-cyano-4-fluoro-phenyl)-3,7-dimethyl-1,1-dioxo-2,3-dihydropyrrolo[3,4-f]thiazepine-6-carboxamide], the cytotoxic concentration (CC50) at 4 days in data set [1] was > 25 µM. Moreover, the concentration giving a half-maximal response (EC50) in the data set on HBV (setting [2]) is 3 nM.

As to `CC1Cc2c(cn(C)c2C(=O)Nc2ccc(F)c(F)c2)S(=O)(=O)N1` (centres unmarked) [Compound 11, N-(3,4-difluorophenyl)-3,6-dimethyl-1,1-dioxo-3,4-dihydro-2H-pyrrolo-[3,4-e]thiazine-5-carboxamide], in data set [1], the CC50 at 4 days is > 25 µM. The EC50 with HBV (setting [2]) was determined as 77 nM.

Take `Cn1cc2c(c1C(=O)Nc1ccnc(C(F)F)c1)OC[C@H](C(C)(C)O)NS2(=O)=O` [Compound 151, (3R)—N-[2-(difluoromethyl)-4-pyridyl]-3-(1-hydroxy-1-methyl-ethyl)-7-methyl-1,1-dioxo-3,4-dihydro-2H-pyrrolo[3,4-b][1,4,5]oxathiazepine-6-carboxamide]: the half-maximal cytotoxic concentration (CC50) at 4 days in data set [1] is > 25 µM. The EC50 in the data set on HBV (setting [2]) stood at 76 nM.

On to `Cn1cc2c(c1C(=O)Nc1ccc(F)c(F)c1)OCC(C1CCN(C(=O)OC(C)(C)C)CC1)NS2(=O)=O` (centres unmarked) [Compound 72, tert-butyl 4-[6-[(3,4-difluorophenyl)carbamoyl]-7-methyl-1,1-dioxo-3,4-dihydro-2H-pyrrolo[3,4-b][1,4,5]oxathiazepin-3-yl]piperidine-1-carboxylate], for which the half-maximal cytotoxic concentration (CC50) at 4 days in data set [1] is > 25 µM. The EC50 in the data set on HBV (setting [2]) was determined as 50 nM.

Consider `Cn1ccc(C2(C)COc3c(cn(C)c3C(=O)Nc3ccc(F)c(F)c3)S(=O)(=O)N2)n1` (racemic) [Compound 192, N-(3,4-difluorophenyl)-3,7-dimethyl-3-(1-methylpyrazol-3-yl)-1,1-dioxo-2,4-dihydropyrrolo[3,4-b][1,4,5]oxathiazepine-6-carboxamide], for which the half-maximal cytotoxic concentration (CC50) at 4 days in data set [1] is > 25 µM. In the data set on HBV (setting [2]), the concentration giving a half-maximal response (EC50) came to 56 nM.

Regarding `Cc1cc(CC2(C)COc3c(cn(C)c3C(=O)Nc3ccc(F)c(F)c3)S(=O)(=O)N2)n(C)n1` (single isomer, unassigned) [Compound 175a, N-(3,4-difluorophenyl)-3-[(2,5-dimethylpyrazol-3-yl)methyl]-3,7-dimethyl-1,1-dioxo-2,4-dihydropyrrolo[3,4-b][1,4,5]oxathiazepine-6-carboxamide], the CC50 at 4 days in data set [1] was > 22.9 µM. Moreover, in the data set on HBV, the concentration giving a half-maximal response (EC50) came out at 21 nM.

For `C[C@@H]1Oc2c(cn(C)c2C(=O)Nc2ccc(F)c(C(F)F)c2)S(=O)(=O)N[C@@H]1CO` [compound 234], the CC50 at 4 days in data set [1] was > 25 µM. Further, the EC50 with HBV (setting [2]) is > 500 nM.

As to `Cc1cc(CC2(C)COc3c(cn(C)c3C(=O)Nc3ccc(F)c(F)c3)S(=O)(=O)N2)n(C)n1` (racemic) [Compound 175, N-(3,4-difluorophenyl)-3-[(2,5-dimethylpyrazol-3-yl)methyl]-3,7-dimethyl-1,1-dioxo-2,4-dihydropyrrolo[3,4-b][1,4,5]oxathiazepine-6-carboxamide], in data set [1], the CC50 at 4 days is > 25 µM. Besides, the EC50 with HBV (setting [2]) was determined as 4 nM.

Take `CC(NCC(F)(F)F)C1CCc2c(cn(C)c2C(=O)Nc2cc(F)c(F)c(F)c2)S(=O)(=O)N1` (single isomer, unassigned) [Compound 218a, 7-methyl-1,1-dioxo-3-[1-(2,2,2-trifluoroethylamino)ethyl]-N-(3,4,5-trifluorophenyl)-2,3,4,5-tetrahydropyrrolo[3,4-f]thiazepine-6-carboxamide]: the half-maximal cytotoxic concentration (CC50) at 4 days in data set [1] was > 25 µM. For the same molecule, the EC50 in the data set with HBV (setting [2]) is > 125 nM.

As for `C[C@H](O)[C@H]1COc2c(cn(C)c2C(=O)Nc2ccnc(C(F)F)c2)S(=O)(=O)N1` [Compound 77, (3R)—N-[2-(difluoromethyl)-4-pyridyl]-3-[(1S)-1-hydroxyethyl]-7-methyl-1,1-dioxo-3,4-dihydro-2H-pyrrolo[3,4-b][1,4,5]oxathiazepine-6-carboxamide], the 50% cytotoxic concentration (CC50) at 4 days in data set [1] was > 25 µM. In addition, the concentration giving a half-maximal response (EC50) with HBV (setting [2]) was 230 nM.

Turning to `C[C@@H]1Oc2c(cn(C)c2C(=O)Nc2ccnc(C(F)F)c2)S(=O)(=O)N[C@@H]1CO` [compound 233], in data set [1], the CC50 at 4 days is > 25 µM. Further, in the data set on HBV (setting [2]), the concentration giving a half-maximal response (EC50) is > 500 nM.

Turning to `CC1CCOc2c(cn(C)c2C(=O)Nc2ccc(F)c(F)c2)S(=O)(=O)N1` (centres unmarked) [Compound 21, N-(3,4-difluorophenyl)-3,8-dimethyl-1,1-dioxo-2,3,4,5-tetrahydropyrrolo[3,4-b][1,4,5]oxathiazocine-7-carboxamide], the CC50 at 4 days in data set [1] was > 25 µM. Also, in the data set with HBV (setting [2]), the concentration giving a half-maximal response (EC50) was 150 nM.

Consider `Cn1cc2c(c1C(=O)Nc1ccc(F)c(C(F)F)c1)OC[C@H](C(O)C1CC1)NS2(=O)=O` (stereo partly drawn) [Compound 115a, (3R)-3-[cyclopropyl(hydroxy)methyl]-N-[3-(difluoromethyl)-4-fluoro-phenyl]-7-methyl-1,1-dioxo-3,4-dihydro-2H-pyrrolo[3,4-b][1,4,5]oxathiazepine-6-carboxamide], for which the CC50 at 4 days in data set [1] was > 25 µM. Also, in the data set on HBV (setting [2]), the EC50 was determined as 8 nM.

`C[C@H]1C=Cc2c(cn(C)c2C(=O)Nc2ccc(F)c(Cl)c2F)S(=O)(=O)N1` (single isomer, unassigned) [Compound 52, (3*S)—N-(3-chloro-2,4-difluoro-phenyl)-3,7-dimethyl-1,1-dioxo-2,3-dihydropyrrolo[3,4-f]thiazepine-6-carboxamide]: the CC50 at 4 days in data set [1] is > 25 µM. Moreover, the EC50 in the data set with HBV (setting [2]) was found to be 56 nM.

In the case of `Cn1cc2c(c1C(=O)Nc1ccc(F)c(F)c1)OC[C@@H](c1ccccc1)NS2(=O)=O` [Compound 25, (3R)—N-(3,4-difluorophenyl)-7-methyl-1,1-dioxo-3-phenyl-3,4-dihydro-2H-pyrrolo[3,4-b][1,4,5]oxathiazepine-6-carboxamide], in data set [1], the CC50 at 4 days is > 25 µM. Further, the half-maximal effective concentration (EC50) in the data set on HBV (setting [2]) was determined as 22 nM.

Regarding `CC1C=Cc2c(cn(C)c2C(=O)Nc2ccc(F)c(F)c2)S(=O)(=O)N1` (single isomer, unassigned) [Compound 7a, N-(3,4-difluorophenyl)-3,7-dimethyl-1,1-dioxo-2,3-dihydropyrrolo-[3,4-f]thiazepine-6-carboxamide], in data set [1], the CC50 at 4 days was > 25 µM. The half-maximal effective concentration (EC50) with HBV is 130 nM.

As usually defined, the CC50 is the concentration giving 50% cytotoxicity. Higher therefore signals better tolerance by the cells. A word on the EC50: it is the midpoint of the concentration-response curve.
